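1) Cells in 96-well plates. 2) Compound, 48 h, 5 concentrations. 3) Linear interpolation between surrounding doses. 4) Unreached endpoint = highest concentration. TGI marks complete inhibition of growth.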
Assays:
Test in all cases: inhibition of tumour cell growth, NCI panel, 48 h
T-47D breast = system: T-47D breast
SF-268 CNS = system: SF-268 CNS
SK-MEL-5 melanoma = system: SK-MEL-5 melanoma
HOP-62 NSCLC = system: HOP-62 NSCLC
SK-MEL-28 melanoma = system: SK-MEL-28 melanoma
RXF 393 renal = system: RXF 393 renal
NCI/ADR-RES ovarian = system: NCI/ADR-RES ovarian
HCT-116 colon = system: HCT-116 colon
DU-145 prostate = system: DU-145 prostate
A498 renal = system: A498 renal
SN12C renal = system: SN12C renal
CCRF-CEM leukemia = system: CCRF-CEM leukemia

| SMILES | TGI (T-47D breast) [µM] | TGI (SF-268 CNS) [µM] | TGI (SK-MEL-5 melanoma) [µM] | TGI (HOP-62 NSCLC) [µM] | TGI (SK-MEL-28 melanoma) [µM] | TGI (RXF 393 renal) [µM] | TGI (NCI/ADR-RES ovarian) [µM] | TGI (HCT-116 colon) [µM] | TGI (DU-145 prostate) [µM] | TGI (A498 renal) [µM] | TGI (SN12C renal) [µM] | TGI (CCRF-CEM leukemia) [µM] |
| --- | --- | --- | --- | --- | --- | --- | --- | --- | --- | --- | --- | --- |
| Cc1nc2c(=O)n(C)ncc2[nH]1 | > 100 | > 100 | > 100 | > 100 | > 100 | > 100 | > 100 | > 100 | > 100 | > 100 | > 100 | > 100 |
| CCC(=O)Nc1ccc(N2C(=O)C(Cl)C2c2ccc(SC)cc2)cc1 (configuration not stated) | > 100 | > 100 | 79.8 | > 100 | > 100 | > 100 | > 100 | > 100 | > 100 | > 100 | > 100 | > 100 |
| CC(C(O)c1ccccc1)C(O)(C(F)(F)F)C(F)(F)F (configuration not stated) | > 100 | > 100 | > 100 | > 100 | > 100 | > 100 | > 100 | > 100 | > 100 | > 100 | > 100 | > 100 |
| CO/N=C(\C)CCC#Cc1ccccc1C(=O)OC | > 10 | > 10 | > 10 | > 10 | > 10 | > 10 | > 10 | > 10 | > 10 | > 10 | > 10 | > 10 |
| O=C1CC(c2ccccc2)n2cccc21 (configuration not stated) | > 100 | > 100 | > 100 | > 100 | > 100 | > 100 | > 100 | > 100 | > 100 | > 100 | > 100 | > 100 |
| CC1=C(C)Cc2c(O)ccc(O)c2C1 | 63.4 | 31.8 | 27.7 | 50.1 | 25 | 30 | > 100 | 29.5 | 39.7 | > 100 | 45.8 | 16.2 |
| COc1cc(CNNC(N)=S)cc(OC)c1OC | > 100 | > 100 | > 100 | > 100 | > 100 | > 100 | > 100 | > 100 | > 100 | > 100 | > 100 | > 100 |
| COC(=O)C(CCSC)NC(=O)Cc1ccc(C(=O)c2ccccc2)cc1 (configuration not stated) | > 100 | > 100 | > 100 | > 100 | > 100 | > 100 | 91.5 | > 100 | > 100 | > 100 | > 100 | > 100 |
| CCOC(=O)c1c(N2CCOCC2)[nH]c(=O)c(C(c2ccco2)c2c(O)c(C(=O)OCC)c(N3CCOCC3)[nH]c2=O)c1O | > 100 | > 100 | > 100 | > 100 | > 100 | > 100 | > 100 | > 100 | > 100 | > 100 | > 100 | > 100 |
| O=C1C(c2c(O)[nH]c3ccc(Br)cc23)=Nc2ccccc21 | 64.2 | 24.4 | 18.6 | 32.6 | > 100 | 6.47 | > 100 | 6.47 | 27.2 | 14.1 | > 100 | > 100 |
| C/C(=N\NC(=S)NCCCNC(=S)N/N=C(\C)c1ccccn1)c1ccccn1 | > 24.1 | 21 | > 22 | 20.7 | > 100 | 14.7 | 8.19 | 24 | 33.9 | 26.2 | 11.2 | 9.4 |
| CCOC(=O)CCC(NC(=O)c1ccc(OCc2ccc3nc(-c4ccccc4)c(Cl)nc3c2)cc1)C(=O)OCC (configuration not stated) | > 31.6 | 28.1 | > 31.6 | > 31.6 | > 31.6 | 8.6 | > 31.6 | > 31.6 | > 31.6 | 77.4 | > 100 | > 31.6 |
| CCOC(=O)c1ccc(NCC#CCN2CCCCC2)cc1 | > 100 | > 100 | > 100 | > 100 | > 100 | > 100 | > 100 | > 100 | > 100 | > 100 | > 100 | > 100 |
| CCOC(=O)C(SCCO)C(C(=O)OCC)n1ccc(=O)[nH]c1=O (configuration not stated) | > 100 | > 100 | > 100 | > 96.6 | > 86.7 | 81.4 | > 69.4 | > 57.4 | > 100 | > 100 | > 100 | 10.5 |
| CCCCCCCCCCNC(=O)CCC(NC(=O)c1ccc(N(C)Cc2cnc3nc(N)nc(N)c3n2)cc1)C(=O)NCCCCCCCCCC (configuration not stated) | 40.3 | 40.2 | 12.6 | > 95.7 | 23.6 | 19.3 | > 100 | 14 | > 70.2 | 73.5 | > 57.2 | 5.9 |
| CC(=O)Nc1ccc(C2SCc3nc4ccccc4n32)cc1 (configuration not stated) | > 100 | > 100 | > 100 | > 100 | > 100 | > 100 | > 100 | > 100 | > 100 | 28.6 | > 100 | > 100 |

Reference: PubChem BioAssay (NCI)
